The results in this text go back to patent publication US20050049245A1, “Heteroaryl-ethanolamine derivatives as antiviral agents” (priority 2002, published 2005).

SMILES strings stand for the structures.

Data set [1] addresses T1, HCMV polymerase (Human cytomegalovirus, UniProt P08546).
T1 construct: made in house; host or cells: recombinant baculovirus-infected SF-9 cells
Nature of the data set: HCMV polymerase scintillation proximity assay (SPA). Particulars: HCMV polymerase, SPA; read-out: Polymerase IC50 HCMV. The data set is classed as biochemical. On the procedure: The HCMV polymerase assay is performed using a scintillation proximity assay (SPA) as described in several references, such as N. D. Cook, et al., Pharmaceutical Manufacturing International, pages 49-53 (1992); KY Takeuchi, Laboratory Practice, September issue (1992); U.S. Pat. No. 4,568,649 (1986); which are incorporated by reference herein. Reactions are performed in 96-well plates. The assay is conducted in 100 yl volume with 5.4 mM HEPES (pH 7.5), 11.7 mM KCl, 4.5 mM MgCl2, 0.36 mg/ml BSA, and 90 nM ^3H-dTTP. Assays are run with and without CHAPS, (3-[(3-Cholamidopropyl)-dimethylammonio]-1-propane-sulfonate) at a final concentration of 2 mM. HCMV polymerase is diluted in enzyme dilution buffer containing 50% glycerol, 250 mM NaCl, 10 mM HEPES (pH 7.5), 100 μg/ml BSA, and 0.01% sodium azide. The HCMV polymerase, which is expressed in recombinant baculovirus-infected SF-9 cells and purified according to literature procedures, is added at 10% (or 10 μl) of the final reaction volume, i.e., 100 μl. Compounds are diluted in 50% DMSO and 10 μl are added to each well. Control wells contain an equivalent concentration of DMSO. Unless noted otherwise, reactions are initiated via the addition of 6 nM biotinylated poly(dA)-oligo(dT) template/primer to reaction mixtures containing the enzyme, substrate, and compounds of interest. Plates are incubated in a 25° C. or 37° C. H2O bath and terminated via the addition of 40 μl/reaction of 0.5 M EDTA (pH 8) per well. Reactions are terminated within the time-frame during which substrate incorporation is linear and varied depending upon the enzyme and conditions used, i.e., 30 min. for HCMV polymerase. Ten (10) μl of streptavidin-SPA beads (20 mg/ml in PBS/10% glycerol) are added following termination of the reaction. Plates are incubated 10 min. at 37° C., then equilibrated to room temperature, and counted on a Packard Topcount. Linear regressions are performed and IC50's are calculated using computer software.
A modified version of the above HCMV polymerase assay is performed as described above, but with the following changes: Compounds are diluted in 100% DMSO until final dilution into assay buffer. In the previous assay, compounds are diluted in 50% DMSO. 4.5 mM Dithiothreitol (DTT) is added to the polymerase buffer.
All results are listed as Polymerase IC50 ([…]) values. In Table 1, the term “n.d.” refers to activity data not determined.
On the technique in general: Scintillation proximity formats need no separation of bound from free tracer.

In data set [2] the target is HSV polymerase (Human herpesvirus 1, UniProt P04293). As to the kind of experiment: HSV polymerase assay (Table 1). Format: biochemical. Particulars: HSV polymerase; read-out: Polymerase IC50 HSV.
The target of data set [3] is VZV polymerase (Varicella-zoster virus, UniProt P09252). As to the kind of experiment: VZV polymerase assay (Table 1). Format: biochemical. The following applies: VZV polymerase; read-out: Polymerase IC50 VZV.
Chain of VZV polymerase (P09252 whole entry): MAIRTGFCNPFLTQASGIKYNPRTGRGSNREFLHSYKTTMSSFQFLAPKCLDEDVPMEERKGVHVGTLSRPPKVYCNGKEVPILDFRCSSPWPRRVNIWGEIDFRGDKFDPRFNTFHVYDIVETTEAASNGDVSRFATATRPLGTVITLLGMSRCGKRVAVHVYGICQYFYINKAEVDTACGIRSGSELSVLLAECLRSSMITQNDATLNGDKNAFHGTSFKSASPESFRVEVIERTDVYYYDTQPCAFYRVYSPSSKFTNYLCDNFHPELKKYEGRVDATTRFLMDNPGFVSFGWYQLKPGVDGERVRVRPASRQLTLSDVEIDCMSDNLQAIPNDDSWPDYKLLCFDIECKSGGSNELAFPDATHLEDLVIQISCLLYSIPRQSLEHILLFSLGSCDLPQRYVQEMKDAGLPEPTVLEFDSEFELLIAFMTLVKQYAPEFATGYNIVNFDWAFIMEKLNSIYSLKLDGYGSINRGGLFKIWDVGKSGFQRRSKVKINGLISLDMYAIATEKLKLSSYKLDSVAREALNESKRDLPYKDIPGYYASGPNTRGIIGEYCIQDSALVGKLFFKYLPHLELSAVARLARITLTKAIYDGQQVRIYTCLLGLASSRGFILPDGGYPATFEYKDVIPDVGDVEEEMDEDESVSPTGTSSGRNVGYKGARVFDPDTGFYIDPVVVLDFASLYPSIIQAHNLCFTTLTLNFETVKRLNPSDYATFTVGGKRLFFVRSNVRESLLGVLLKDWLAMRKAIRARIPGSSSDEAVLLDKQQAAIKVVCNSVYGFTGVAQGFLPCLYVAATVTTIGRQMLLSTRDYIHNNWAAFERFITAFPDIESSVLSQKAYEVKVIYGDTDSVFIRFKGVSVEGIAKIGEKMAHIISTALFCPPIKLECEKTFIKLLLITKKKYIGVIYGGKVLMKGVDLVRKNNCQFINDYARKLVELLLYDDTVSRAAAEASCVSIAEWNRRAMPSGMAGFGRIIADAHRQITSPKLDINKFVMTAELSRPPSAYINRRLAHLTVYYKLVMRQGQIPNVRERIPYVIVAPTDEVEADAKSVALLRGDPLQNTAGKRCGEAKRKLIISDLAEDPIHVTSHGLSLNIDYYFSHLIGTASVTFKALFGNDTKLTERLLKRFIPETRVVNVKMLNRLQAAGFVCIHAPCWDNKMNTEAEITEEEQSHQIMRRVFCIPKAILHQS

Chain of HSV polymerase (P04293 whole entry): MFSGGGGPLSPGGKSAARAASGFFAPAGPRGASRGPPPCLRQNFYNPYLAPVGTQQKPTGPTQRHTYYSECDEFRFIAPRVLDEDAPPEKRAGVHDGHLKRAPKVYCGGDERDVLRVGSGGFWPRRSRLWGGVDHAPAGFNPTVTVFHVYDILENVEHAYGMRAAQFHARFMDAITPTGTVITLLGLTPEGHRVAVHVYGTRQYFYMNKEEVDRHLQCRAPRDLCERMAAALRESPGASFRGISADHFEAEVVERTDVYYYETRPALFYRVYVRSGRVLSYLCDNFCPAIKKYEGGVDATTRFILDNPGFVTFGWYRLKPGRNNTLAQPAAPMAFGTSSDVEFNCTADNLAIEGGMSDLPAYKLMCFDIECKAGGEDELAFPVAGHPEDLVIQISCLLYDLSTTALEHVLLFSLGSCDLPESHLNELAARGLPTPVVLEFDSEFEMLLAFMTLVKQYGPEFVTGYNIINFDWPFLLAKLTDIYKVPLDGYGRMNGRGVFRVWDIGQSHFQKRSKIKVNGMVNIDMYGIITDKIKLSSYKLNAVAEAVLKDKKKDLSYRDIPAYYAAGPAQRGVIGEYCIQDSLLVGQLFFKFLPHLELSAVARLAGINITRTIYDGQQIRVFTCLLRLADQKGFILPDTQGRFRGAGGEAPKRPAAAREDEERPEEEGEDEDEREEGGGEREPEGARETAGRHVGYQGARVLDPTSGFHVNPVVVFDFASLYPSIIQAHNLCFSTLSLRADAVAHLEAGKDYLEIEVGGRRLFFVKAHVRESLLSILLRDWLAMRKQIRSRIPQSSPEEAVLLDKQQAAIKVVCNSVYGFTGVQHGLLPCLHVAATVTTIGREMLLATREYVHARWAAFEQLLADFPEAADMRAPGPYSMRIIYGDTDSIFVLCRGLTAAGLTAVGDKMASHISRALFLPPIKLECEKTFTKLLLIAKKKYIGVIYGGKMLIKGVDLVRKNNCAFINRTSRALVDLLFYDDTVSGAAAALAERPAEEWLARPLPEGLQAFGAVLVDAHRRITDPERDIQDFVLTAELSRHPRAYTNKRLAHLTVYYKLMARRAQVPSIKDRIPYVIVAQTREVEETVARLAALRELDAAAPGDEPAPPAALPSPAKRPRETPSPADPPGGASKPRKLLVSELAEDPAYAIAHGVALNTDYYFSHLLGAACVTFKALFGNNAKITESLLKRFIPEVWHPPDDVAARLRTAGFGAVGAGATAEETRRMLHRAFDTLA
T1 sequence (P08546 whole entry): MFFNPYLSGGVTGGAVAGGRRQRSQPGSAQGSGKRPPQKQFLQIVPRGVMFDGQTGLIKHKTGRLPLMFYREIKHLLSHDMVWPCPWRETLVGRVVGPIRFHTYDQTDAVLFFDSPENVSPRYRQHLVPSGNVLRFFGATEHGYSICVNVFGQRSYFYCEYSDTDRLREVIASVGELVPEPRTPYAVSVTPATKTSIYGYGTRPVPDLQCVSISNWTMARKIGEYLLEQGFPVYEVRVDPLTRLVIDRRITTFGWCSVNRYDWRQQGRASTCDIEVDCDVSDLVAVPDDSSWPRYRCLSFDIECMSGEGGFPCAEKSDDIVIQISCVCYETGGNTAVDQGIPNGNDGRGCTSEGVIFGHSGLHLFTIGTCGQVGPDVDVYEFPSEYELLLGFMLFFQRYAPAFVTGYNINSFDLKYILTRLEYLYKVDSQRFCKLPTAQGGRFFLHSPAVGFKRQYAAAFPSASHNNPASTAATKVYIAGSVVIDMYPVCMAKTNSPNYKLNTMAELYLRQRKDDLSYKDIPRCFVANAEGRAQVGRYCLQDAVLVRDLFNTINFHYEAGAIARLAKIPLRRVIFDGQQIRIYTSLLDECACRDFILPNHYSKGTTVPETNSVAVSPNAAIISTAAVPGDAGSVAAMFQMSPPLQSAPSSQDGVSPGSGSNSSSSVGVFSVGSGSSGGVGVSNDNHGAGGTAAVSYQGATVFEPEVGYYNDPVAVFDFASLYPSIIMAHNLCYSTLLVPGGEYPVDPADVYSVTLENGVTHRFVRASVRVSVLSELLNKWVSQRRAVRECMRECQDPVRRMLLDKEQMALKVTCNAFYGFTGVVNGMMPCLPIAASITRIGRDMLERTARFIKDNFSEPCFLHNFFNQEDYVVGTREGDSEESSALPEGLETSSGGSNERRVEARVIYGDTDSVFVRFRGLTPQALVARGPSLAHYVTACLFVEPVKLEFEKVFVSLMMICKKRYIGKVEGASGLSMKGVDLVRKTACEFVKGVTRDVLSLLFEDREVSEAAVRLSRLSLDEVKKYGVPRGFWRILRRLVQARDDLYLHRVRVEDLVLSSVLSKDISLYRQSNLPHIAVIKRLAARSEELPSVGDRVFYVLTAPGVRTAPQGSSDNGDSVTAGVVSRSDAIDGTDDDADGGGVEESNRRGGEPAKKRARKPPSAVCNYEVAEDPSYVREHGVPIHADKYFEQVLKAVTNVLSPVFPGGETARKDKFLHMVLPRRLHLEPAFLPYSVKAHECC

Broadly, the IC50 is the point on the concentration scale where inhibition reaches its midpoint. For orientation: melting point means the temperature of the solid-liquid transition. `CN(Cc1cc2c(=O)c(C(=O)NCc3ccc(Cl)cc3)cn(C)c2s1)CC(O)c1ccn[nH]1` (racemic) [Example 18, rac-N-(4-Chlorobenzyl)-2-(((2-hydroxy-2-(1H-pyrazol-5-yl)ethyl)(methyl)amino)-methyl)-7-methyl-4-oxo-4,7-dihydrothieno[2,3-b]pyridine-5-carboxamide] had a melting point of 177.5 to 178.6 °C. For the same compound, the 50% inhibitory concentration (IC50) in data set [1] is 350 nM. Moreover, the IC50 in data set [2] is 910 nM. Besides, in data set [3], the concentration for half-maximal inhibition (IC50) was 370 nM.

On to `CN(Cc1cc2c(=O)c(C(=O)NCc3ccc(Cl)cc3)cn(C)c2s1)CC(O)c1cn(C)cn1` (racemic) [Example 9, rac-N-(4-Chlorobenzyl)-2-(((2-hydroxy-2-(1-methyl-1H-imidazol-4-yl)ethyl) (methyl)amino)methyl)-7-methyl-4-oxo-4,7-dihydrothieno[2,3-b]pyridine-5-carboxamide], for which the melting point was 124 to 130 °C. In addition, in data set [1], the IC50 is 1060 nM.

Turning to `CN(Cc1cc2c(=O)c(C(=O)NCc3ccc(Cl)cc3)cn(C)c2s1)CC(O)c1cc2ccccc2o1` (racemic) [Example 5, rac-2-(((2-(1-Benzofuran-2-yl)-2-hydroxyethyl)(methyl)amino)methyl)-N-(4-chlorobenzyl)-7-methyl-4-oxo-4,7-dihydrothieno[2,3-b]pyridine-5-carboxamide], the melting point fell in the range of 212 to 214 °C. In addition, the IC50 in data set [1] came to 10 nM. Further, the IC50 in data set [2] stood at 30 nM. In data set [3], the IC50 came to 10 nM.

With `Cc1ccc(C(O)CN(C)Cc2cc3c(=O)c(C(=O)NCc4ccc(Cl)cc4)cn(C)c3s2)o1` (racemic) [Example 3, rac-N-(4-Chlorobenzyl)-2-(((2-hydroxy-2-(5-methyl-2-furyl)ethyl)(methyl)amino)methyl)-7-methyl-4-oxo-4,7-dihydrothieno[2,3-b]pyridine-5-carboxamide], the melting point was in the range of 137 to 140 °C. In data set [1], the IC50 was found to be 70 nM. The half-inhibitory concentration (IC50) in data set [2] was 260 nM. Further, the IC50 in data set [3] was 130 nM.

On to `COCCn1cc(C(=O)NCc2ccc(Cl)cc2)c(=O)c2cc(CN(C)CC(O)c3cc4ccccc4o3)sc21` (racemic) [Example 24, rac-2-(((2-(1-Benzofuran-2-yl)-2-hydroxyethyl)(methyl)amino)methyl)-N-(4-chlorobenzyl)-7-(2-methoxyethyl)-4-oxo-4,7-dihydrothieno[2,3-b]pyridine-5-carboxamide], for which the melting point fell in the range of 133 to 140 °C. In addition, the IC50 in data set [1] is 310 nM.

On to `CN(Cc1cc2c(=O)c(C(=O)NCc3ccc(Cl)cc3)cn(C)c2s1)CC(O)c1c[nH]cn1` (racemic) [Example 10, rac-N-(4-Chlorobenzyl)-2-(((2-hydroxy-2-(1H-imidazol-4-yl)ethyl)(methyl)amino)methyl)-7-methyl-4-oxo-4,7-dihydrothieno[2,3-b]pyridine-5-carboxamide], for which the melting point was 164 to 169 °C. The IC50 in data set [1] was determined as 450 nM. For the same compound, the 50% inhibitory concentration (IC50) in data set [2] worked out at 1970 nM. The concentration for half-maximal inhibition (IC50) in data set [3] came out at 440 nM.

Regarding `Cc1cc(C(O)CN(C)Cc2cc3c(=O)c(C(=O)NCc4ccc(Cl)cc4)cn(C)c3s2)c(C)o1` (racemic) [Example 12, rac-N-(4-Chlorobenzyl)-2-(((2-(2,5-dimethyl-3-furyl)-2-hydroxyethyl)(methyl)-amino)methyl)-7-methyl-4-oxo-4,7-dihydrothieno[2,3-b]pyridine-5-carboxamide], the melting point was 167 to 172 °C. The IC50 in data set [1] was 280 nM.

`CN(Cc1cc2c(=O)c(C(=O)NCc3ccc(Cl)cc3)cn(C)c2s1)CC(O)c1ccc(-c2ccccc2)o1` (racemic) [Example 31, rac-N-(4-Chlorobenzyl)-2-(((2-(5-phenyl-2-furyl)-2-hydroxyethyl)(methyl)-amino)methyl)-7-methyl-4-oxo-4,7-dihydrothieno[2,3-b]pyridine-5-carboxamide] showed a melting point of 177 to 178 °C. Also, in data set [1], the IC50 was determined as 70 nM. The IC50 in data set [2] came to 120 nM. Also, in data set [3], the IC50 came to 60 nM.

For the compound `CN(Cc1cc2c(=O)c(C(=O)NCc3ccc(Cl)cc3)cn(C)c2s1)CC(O)c1ccc(C#N)s1` (racemic) [Example 15, rac-N-(4-Chlorobenzyl)-2-(((2-(5-cyanothien-2-yl)-2-hydroxyethyl)(methyl)-amino)methyl)-7-methyl-4-oxo-4,7-dihydrothieno[2,3-b]pyridine-5-carboxamide], the melting point is 155 to 160 °C (dec.). Moreover, the concentration for half-maximal inhibition (IC50) in data set [1] came to 240 nM.

In turn, `CN(Cc1cc2c(=O)c(C(=O)NCc3ccc(Cl)cc3)cn(C)c2s1)CC(O)c1ncc[nH]1` (racemic) [Example 36, rac-N-(4-Chlorobenzyl)-2-(((2-hydroxy-2-(1H-imidazol-2-yl)ethyl)(methyl)-amino)methyl)-7-methyl-4-oxo-4,7-dihydrothieno[2,3-b]pyridine-5-carboxamide] yielded a melting point of 177.9 to 179.5 °C. Further, in data set [1], the concentration for half-maximal inhibition (IC50) amounted to 830 nM.

As for `CN(Cc1cc2c(=O)c(C(=O)NCc3ccc(Cl)cc3)cn(C)c2s1)CC(O)c1csc2ccccc12` (racemic) [Example 13, rac-2-(((2-(1-Benzothien-3-yl)-2-hydroxyethyl)(methyl)amino)methyl)-N-(4-chlorobenzyl)-7-methyl-4-oxo-4,7-dihydrothieno[2,3-b]pyridine-5-carboxamide], the melting point was 213 to 219 °C (dec.). Further, the IC50 in data set [1] amounted to 170 nM. For the same compound, the IC50 in data set [2] turned out to be 1920 nM. Further, the IC50 in data set [3] came to 440 nM.

`CCn1cc(C(=O)NCc2ccc(Cl)cc2)c(=O)c2cc(CN(C)C[C@@H](O)c3ccco3)sc21` [Example 20, N-(4-Chlorobenzyl)-7-ethyl-2-((((2R)-2-(2-furyl)-2-hydroxyethyl)(methyl)amino)-methyl)-4-oxo-4,7-dihydrothieno [2,3-b]pyridine-5-carboxamide] gave a melting point of 123 to 127 °C. Also, the half-inhibitory concentration (IC50) in data set [1] was 220 nM. Moreover, the concentration for half-maximal inhibition (IC50) in data set [2] was found to be 460 nM. For the same compound, in data set [3], the half-inhibitory concentration (IC50) is 200 nM.

Compound `CN(Cc1cc2c(=O)c(C(=O)NCc3ccc(Cl)cc3)cn(C)c2s1)CC(O)c1c[nH]c2ccccc12` (racemic) [Example 11, rac-N-(4-Chlorobenzyl)-2-(((2-hydroxy-2-(1H-indol-3-yl)ethyl)(methyl)amino)-methyl)-7-methyl-4-oxo-4,7-dihydrothieno[2,3-b]pyridine-5-carboxamide] returned a melting point of 120 to 123 °C. The IC50 in data set [1] was found to be 90 nM. Besides, the IC50 in data set [2] stood at 200 nM. Besides, the half-inhibitory concentration (IC50) in data set [3] worked out at 90 nM.

Compound `CN(Cc1cc2c(=O)c(C(=O)NCc3ccc(Cl)cc3)cn(C)c2s1)CC(O)c1cccn1C` (racemic) [Example 8, rac-N-(4-Chlorobenzyl)-2-(((2-hydroxy-2-(1-methyl-1H-pyrrol-2-yl)ethyl)-(methyl)amino)methyl)-7-methyl-4-oxo-4,7-dihydrothieno[2,3-b]pyridine-5-carboxamide] came in with a melting point of 140 to 145 °C. In addition, the IC50 in data set [1] amounted to 260 nM. The IC50 in data set [2] came out at 850 nM. Moreover, the half-inhibitory concentration (IC50) in data set [3] worked out at 320 nM.

In turn, `Cc1cc(C(O)CN(C)Cc2cc3c(=O)c(C(=O)NCc4ccc(Cl)cc4)cn(C)c3s2)oc1C` (racemic) [Example 30, rac-N-(4-Chlorobenzyl)-2-(((2-(4,5-dimethyl-2-furyl)-2-hydroxyethyl)(methyl)-amino)methyl)-7-methyl-4-oxo-4,7-dihydrothieno[2,3-b]pyridine-5-carboxamide] came in with a melting point of 166 to 167 °C. Moreover, in data set [1], the IC50 is 140 nM. The 50% inhibitory concentration (IC50) in data set [2] amounted to 620 nM. The IC50 in data set [3] came out at 200 nM.

On to `CN(Cc1cc2c(=O)c(C(=O)NCc3ccc(Cl)cc3)cn(C)c2s1)CC(O)c1cc2ccccc2n1C` (racemic) [Example 14, rac-N-(4-Chlorobenzyl)-2-(((2-hydroxy-2-(1-methyl-1H-indol-2-yl)ethyl)(methyl)-amino)methyl)-7-methyl-4-oxo-4,7-dihydrothieno[2,3-b]pyridine-5-carboxamide], for which the melting point was 128 to 132 °C (dec.). Also, the IC50 in data set [1] came out at 100 nM. In addition, the 50% inhibitory concentration (IC50) in data set [2] came to 530 nM. In addition, the IC50 in data set [3] was 120 nM.
